Results: ChEMBL document CHEMBL1153372, “A selective matrix metalloprotease 12 inhibitor for potential treatment of chronic obstructive pulmonary disease (COPD): discovery of (S)-2-(8-(methoxycarbonylamino)dibenzo[b,d]furan-3-sulfonamido)-3-methylbutanoic acid (MMP408)” (J Med Chem, 2009)

Columns and labels:
[1] = target: Collagenase 3 (Homo sapiens, UniProt P45452); assay: Inhibition of human recombinant MMP13 expressed in Escherichia coli
[2] = AUC in C57BL/6 mouse at 30 mg/kg, po; format: ADME, organism-based; parameters: dose 30 mg/kg, route oral; conditions: plasma
[3] = Oral bioavailability in C57BL/6 mouse at 30 mg/kg; format: ADME, organism-based; conditions: in vivo
[4] = Clearance in C57BL/6 mouse at 2 mg/kg, iv; format: ADME, organism-based; parameters: dose 2 mg/kg, route intravenous; conditions: in vivo
[5] = Volume of distribution at steady state in C57BL/6 mouse at 2 mg/kg, iv; format: ADME, organism-based; parameters: dose 2 mg/kg, route intravenous; conditions: in vivo, read-out: Vdss
[6] = Cmax in C57BL/6 mouse at 30 mg/kg, po; format: ADME, organism-based; parameters: dose 30 mg/kg, route oral; conditions: in vivo
[7] = Half life in C57BL/6 mouse at 30 mg/kg, po; format: ADME, organism-based; parameters: dose 30 mg/kg, route oral; conditions: in vivo

Row | Compound | IC50 [1] | further results
1 | CC(C)[C@H](NS(=O)(=O)c1ccc2c(c1)oc1ccc(NC(=O)Nc3ccsc3)cc12)C(=O)O | 3.3 nM | 
2 | CC(C)[C@H](NS(=O)(=O)c1ccc2c(c1)oc1ccc(NC(=O)OCCF)cc12)C(=O)O | 10 nM | 
3 | CC(C)[C@H](NS(=O)(=O)c1ccc2oc3ccccc3c2c1)C(=O)O | 25000 nM | 
4 | COC(=O)Nc1ccc2c(c1)oc1cc(S(=O)(=O)N[C@H](C(=O)O)C(C)C)ccc12 | > 1000 nM | 
5 | Cc1ccc(OC(=O)Nc2ccc3oc4cc(S(=O)(=O)N[C@H](C(=O)O)C(C)C)ccc4c3c2)cc1 | 100 nM | 
6 | CC(C)[C@H](NS(=O)(=O)c1ccc2c(c1)oc1ccc(NC(=O)NCCc3cccs3)cc12)C(=O)O | 1.1 nM | clearance [4]: 211 mL/min/kg; Vd [5]: 15.6 L/kg

Further lines, with some results ahead:

Row | IC50 [1] | Compound | further results
7 | > 25000 nM | COC(=O)Nc1cc2oc3ccc(S(=O)(=O)N[C@H](C(=O)O)C(C)C)cc3c2cc1Br | 
8 | 180 nM | CC(C)[C@H](NS(=O)(=O)c1ccc2c(c1)oc1ccc(NC(=O)Oc3ccccc3Cl)cc12)C(=O)O | 
9 | 500 nM | COC(=O)Nc1ccc2c(c1)oc1ccc(S(=O)(=O)N[C@@H](C(=O)O)C(C)C)cc12 | AUC [2]: 21700 ng·h/mL; bioavailability [3]: 36%; clearance [4]: 8.3 mL/min/kg; Vd [5]: 1.6 L/kg; Cmax [6]: 10600 ng/mL; half-life [7]: 2.7 h
10 | 120 nM | CC(C)[C@@H](NS(=O)(=O)c1ccc2oc3cc(NS(=O)(=O)C(C)C)ccc3c2c1)C(=O)O | 
11 | 600 nM | CC(C)[C@@H](NS(=O)(=O)c1ccc2oc3cc(NC(=O)Oc4ccccc4)ccc3c2c1)C(=O)O | 
12 | 25400 nM | COC(=O)Nc1cc2oc3ccc(S(=O)(=O)N[C@@H](C(=O)O)C(C)C)cc3c2cc1Br | 
13 | 109 nM | CCCOC(=O)Nc1ccc2c(c1)oc1ccc(S(=O)(=O)N[C@@H](C(=O)O)C(C)C)cc12 | 
14 | 200 nM | CC(C)[C@H](NS(=O)(=O)c1ccc2c(c1)oc1ccc(NC(=O)Oc3ccc(F)cc3)cc12)C(=O)O | 
15 | 59 nM | CC(C)[C@H](NS(=O)(=O)c1ccc2c(c1)oc1ccc(NC(N)=O)cc12)C(=O)O | 
